According to publication PMC9090415, “Discovery of small molecule inhibitors of Plasmodium falciparum apicoplast DNA polymerase” (Journal of Enzyme Inhibition and Medicinal Chemistry, 2022):

Target: P. falciparum apicoplast DNA polymerase (Pf-apPOL) (Plasmodium falciparum, UniProt Q8ILY1)
Test: Fluorescence-based high-throughput DNA polymerase assay (molecular beacon), primary screen and dose-response
Type: biochemical
In short: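 Single-point screening used 10 µM compound with 20 nM polymerase, 20 nM hairpin substrate and 6 µM dNTPs for 90 min at 25 °C. Confirmatory titrations (2.5–80 µM) followed fluorescence at three times, and IC50 was derived from a fit including a cooperativity term n.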

Chain of P. falciparum apicoplast DNA polymerase (Pf-apPOL) (Q8ILY1 entry or part of it): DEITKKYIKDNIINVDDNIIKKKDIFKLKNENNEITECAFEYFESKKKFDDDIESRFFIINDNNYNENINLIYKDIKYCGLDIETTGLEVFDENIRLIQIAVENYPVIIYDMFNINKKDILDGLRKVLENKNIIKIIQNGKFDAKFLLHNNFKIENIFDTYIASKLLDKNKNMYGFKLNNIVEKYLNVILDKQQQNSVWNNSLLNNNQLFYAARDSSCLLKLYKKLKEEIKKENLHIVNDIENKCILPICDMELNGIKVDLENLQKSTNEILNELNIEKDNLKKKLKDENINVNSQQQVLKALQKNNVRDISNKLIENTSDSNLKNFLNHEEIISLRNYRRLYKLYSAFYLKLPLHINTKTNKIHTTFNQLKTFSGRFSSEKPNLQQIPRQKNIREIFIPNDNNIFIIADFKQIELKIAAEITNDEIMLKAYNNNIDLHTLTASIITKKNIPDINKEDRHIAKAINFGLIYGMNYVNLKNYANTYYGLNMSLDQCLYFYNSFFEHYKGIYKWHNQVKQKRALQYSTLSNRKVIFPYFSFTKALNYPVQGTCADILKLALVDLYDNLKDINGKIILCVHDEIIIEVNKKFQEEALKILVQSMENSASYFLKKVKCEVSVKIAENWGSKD

SMILES: CS(=O)(=O)c1cccc(C(=O)Nc2nnc(-c3ccno3)o2)c1 [KU0171319]
- DNA Pol (186 hits, value of the hit list (primary screen); unit not given; 90 min, 10 µM): 45
- % inhibition Apo pol 10' (DRC-1; 10'; concentration 2.5): 6.657%
- % inhibition Apo pol 10' (DRC-1; 10'; concentration 5): 14.8177%
- % inhibition Apo pol 10' (DRC-1; 10'; concentration 10): 36.7259%
- % inhibition Apo pol 10' (DRC-1; 10'; concentration 20): 44.3674%
- % inhibition Apo pol 10' (DRC-1; 10'; concentration 40): 60.0862%
- % inhibition Apo pol 10' (DRC-1; 10'; concentration 80): 69.7787%
- % inhibition Apol 90' (DRC-1; 90'; concentration 2.5): -3.363%
- % inhibition Apol 90' (DRC-1; 90'; concentration 5): 1.476%
- % inhibition Apol 90' (DRC-1; 90'; concentration 10): 14.1125%
- % inhibition Apol 90' (DRC-1; 90'; concentration 20): 18.6112%
- % inhibition Apol 90' (DRC-1; 90'; concentration 40): 31.6807%
- % inhibition Apol 90' (DRC-1; 90'; concentration 80): 46.8389%
- % inhibition apPOL 180' (DRC-1; 180'; concentration 2.5): -9.274%
- % inhibition apPOL 180' (DRC-1; 180'; concentration 5): -6.316%
- % inhibition apPOL 180' (DRC-1; 180'; concentration 10): 0.8537%
- % inhibition apPOL 180' (DRC-1; 180'; concentration 20): 2.328%
- % inhibition apPOL 180' (DRC-1; 180'; concentration 40): 13.3473%
- % inhibition apPOL 180' (DRC-1; 180'; concentration 80): 27.8767%
- % inhibition Apo pol 5' (DRC-2, 5', concentration 2.5): 8%
- % inhibition Apo pol 5' (DRC-2, 5', concentration 5): 13%
- % inhibition Apo pol 5' (DRC-2, 5', concentration 10): 24%
- % inhibition Apo pol 5' (DRC-2, 5', concentration 20): 29%
- % inhibition Apo pol 5' (DRC-2, 5', concentration 40): 32%
- % inhibition Apo pol 5' (DRC-2, 5', concentration 80): 22%
- % inhibition Apol 40' (DRC-2, 40', concentration 2.5): 1.54%
- % inhibition Apol 40' (DRC-2, 40', concentration 5): 4.6%
- % inhibition Apol 40' (DRC-2, 40', concentration 10): 13%
- % inhibition Apol 40' (DRC-2, 40', concentration 20): 17%
- % inhibition Apol 40' (DRC-2, 40', concentration 40): 28%
- % inhibition Apol 40' (DRC-2, 40', concentration 80): 35%
- % inhibition ApPOL 90' (DRC-2, 90', concentration 2.5): -0.356%
- % inhibition ApPOL 90' (DRC-2, 90', concentration 5): 0.372%
- % inhibition ApPOL 90' (DRC-2, 90', concentration 10): 8%
- % inhibition ApPOL 90' (DRC-2, 90', concentration 20): 11%
- % inhibition ApPOL 90' (DRC-2, 90', concentration 40): 21%
- % inhibition ApPOL 90' (DRC-2, 90', concentration 80): 34%
- % inhibition apPOL 180' (DRC-2, 180', concentration 2.5): -5.4%
- % inhibition apPOL 180' (DRC-2, 180', concentration 5): -8%
- % inhibition apPOL 180' (DRC-2, 180', concentration 10): -3%
- % inhibition apPOL 180' (DRC-2, 180', concentration 20): -2.43%
- % inhibition apPOL 180' (DRC-2, 180', concentration 40): 7.43%
- % inhibition apPOL 180' (DRC-2, 180', concentration 80): 26%
- % inhibition Apo pol 5' (DRC-2; 5'; concentration 2.5): 8%
- % inhibition Apo pol 5' (DRC-2; 5'; concentration 5): 13%
- % inhibition Apol 40' (DRC-2; 40'; concentration 10): 13%
- % inhibition ApPOL 90' (DRC-2; 90'; concentration 10): 8%
- DNA Pol (primary screen value, 'DNA Pol' only; 90 min, 10 µM): 45

SMILES: CN(C)C=CC(=O)c1ccccn1 [Molecule 64]
- IC50 (supplemental file 2, sheet IC50 nontoxic compounds; Pf-apPOL): 18.5 µM
